Molecular target: T1, Renin (Homo sapiens, UniProt P00797)
T1 sequence (P00797 whole entry): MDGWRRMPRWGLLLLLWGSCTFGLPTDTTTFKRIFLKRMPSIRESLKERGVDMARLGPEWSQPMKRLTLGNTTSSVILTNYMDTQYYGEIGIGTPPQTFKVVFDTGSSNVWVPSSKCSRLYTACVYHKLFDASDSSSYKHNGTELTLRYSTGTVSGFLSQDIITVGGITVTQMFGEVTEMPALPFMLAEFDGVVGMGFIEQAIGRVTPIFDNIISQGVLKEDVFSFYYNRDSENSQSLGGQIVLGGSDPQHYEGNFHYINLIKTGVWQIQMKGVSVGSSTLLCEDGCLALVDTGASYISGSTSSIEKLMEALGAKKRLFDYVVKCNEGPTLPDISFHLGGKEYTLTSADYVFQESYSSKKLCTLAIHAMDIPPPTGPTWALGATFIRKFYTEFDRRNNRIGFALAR
Assay: In Vitro Renin IC50 Determinations (Tandem GFP FRET Assay)
Conditions: pH 7.4; 22 °C
Text: The renin assay utilized a tandem Green Flourescent Protein (tGFP) substrate that was hydrolyzed by human rennin.

| SMILES | IC50 |
| --- | --- |
| CCc1nc(N)nc(NCCc2ccccc2NC(=O)c2ccc(N)c(OC)c2)c1-c1ccc2c(c1)N(CCCOC)C(=O)C(C)(C)O2 [4-amino-N-{2-[2-({2-amino-6-ethyl-5-[4-(3-methoxypropyl)-2,2-dimethyl-3-oxo-3,4-dihydro-2H-1,4-benzoxazin-6-yl]pyrimidin-4-yl}amino)ethyl]phenyl}-3-methoxybenzamide] | 336 nM |
| CCc1nc(N)nc(N)c1-c1ccc2c(c1)N(CCCOC)CCC2 [6-ethyl-5-[1-(3-methoxypropyl)-1,2,3,4-tetrahydroquinolin-7-yl]pyrimidine-2,4-diamine] | 691 nM |
| CCc1nc(N)nc(N)c1-c1ccc2c(c1)N(CCCOC)C(c1ccccc1)CC2 (stereo unspecified) [6-ethyl-5-[1-(3-methoxypropyl)-2-phenyl-1,2,3,4-tetrahydroquinolin-7-yl]pyrimidine-2,4-diamine] | 58 nM |

More lines, now with the values ahead:

| IC50 | SMILES |
| --- | --- |
| 6560 nM | CCc1nc(N)nc(N)c1-c1ccc(NCc2cc(F)cc(F)c2)cc1 [5-(4-{[(3,5-difluorophenyl)methyl]amino}phenyl)-6-ethylpyrimidine-2,4-diamine] |
| 173 nM | CCc1nc(N)nc(N)c1-c1ccc2c3ccccc3n(CCCOC)c2c1 [6-ethyl-5-[9-(3-methoxypropyl)-9H-carbazol-2-yl]pyrimidine-2,4-diamine] |
| 27 nM | CCc1nc(N)nc(NCCNS(=O)(=O)c2ccc3ccccc3c2)c1-c1ccc2c(c1)N(CCCOC)C(=O)C(C)(C)O2 [N-[2-({2-amino-6-ethyl-5-[4-(3-methoxypropyl)-2,2-dimethyl-3-oxo-3,4-dihydro-2H-1,4-benzoxazin-6-yl]pyrimidin-4-yl}amino)ethyl]naphthalene-2-sulfonamide] |

From BindingDB's records for doi:10.1016/j.ab.2006.10.017 (Pfizer, 2007)
